Assay results: US8124744B2, “Macrolide derivatives” (Taisho Pharmaceutical Co., Ltd., priority 2006, dated 2012)
Values after ≈ are worked out from the molar mass of the structure shown. Read-outs that look alike come from different tables or passages of the source.

Key:
pro MMP-9 protein = assay: Inhibitory activity against proMMP-9 protein production (TNF α-stimulated mouse peritoneal exudate cells, ELISA); type: cell-based, C57BL/6J mice
Description: (§1) To 7- to 9-week male C57BL/6J mice (purchased from CLEA Japan, Inc. or Japan SLC, Inc.), Zymosan A (SIGMA) derived from budding yeasts which is adjusted to be 1 mg/ml in a phosphate buffer solution (PBS, 10010-49, Invitrogen) was administered intraperitoneally at 1 ml per mouse to induce peritonitis. Three days later, filter-sterilized cell recovery buffer (2 mM EDTA, 0.5% bovine serum albumin, PBS, pH 7.4) was administered intraperitoneally at 5 ml per mouse to recover peritoneal exudata cells. The cells went through a cell strainer (70 μm nylon, FALCON) and were then washed twice with a Hanks solution (Invitrogen). The cells were suspended in 10% fetal calf serum-containing Dulbecco's modified Eagle's culture medium (Invitrogen). The suspension was seeded on a plate with 48 wells, after 6 hours, the culture medium was completely exchanged. After culturing for another 18 hours, test compounds were added at 0.02 to 20 μM of the final concentration. After 1 hour from the addition of the compounds, a tumor necrosis factor (TNF) α (R & D Systems) was added at 25 ng/ml of the final concentration, and 24 hours later, the culture supernatant was collected. The amount of pro MMP-9 protein in the supernatant was quantified by an enzyme-linked immunosorbent assay (ELISA) (R & D Systems), IC50 values of the test compounds on the increased amount by TNF α stimuli, were calculated by ORIGIN analysis software (trade name: OriginLab). In addition, minimal inhibitory concentration (MIC) of each test compounds (measured bacterium: Staphylococcus aureus ATCC29213) was measured. As a comparative agent […] A (clarithromycin) was used.

[1] = tested on: Staphylococcus aureus ATCC29213; assay: Minimal inhibitory concentration (MIC); type: cell-based
Description: as §1

[2] = relative activity when the value of Comparative Agent 1 (IC50 = 10.04 ± 4.11 μM) is 10, on the increase of pro MMP-9 by TNF α 25 ng/ml, 24 hours, read-out: IC50 (μM)*

| Compound | IC50 (pro MMP-9 protein; [2]) [µM] | MIC [1] [µg/mL] | IC50 (pro MMP-9 protein; actual value of Comparative Agent 1 (table footnote), not normalised, read-out: IC50) [µM] |
| --- | --- | --- | --- |
| CC[C@H]1OC(=O)[C@H](C)[C@@H](O[C@H]2C[C@@](C)(OC)[C@@H](OC(C)=O)[C@H](C)O2)[C@H](C)[C@@H](O[C@@H]2O[C@H](C)C[C@@H](N3CCCC(O)C3)[C@@H]2N(C)C)[C@@](C)(OC)C[C@@H](C)C(=O)[C@H](C)[C@@H](O)[C@]1(C)O (mixture of isomers) [Example 196, 4″-O-acetyl-3′-dedimethylamino-2′-deoxy-2′-dimethylamino-3-((±)-3-hydroxypiperidin-1-yl)-6-O-methylerythromycin A] | 2.51 | > 128 |  |
| CC[C@H]1OC(=O)[C@H](C)[C@@H](O[C@H]2C[C@@](C)(OC)[C@@H](O)[C@H](C)O2)[C@H](C)[C@@H](O[C@@H]2O[C@H](C)C[C@H](N(C)C)[C@H]2O)[C@](C)(OC)C[C@@H](C)C(=O)[C@H](C)[C@@H](O)[C@]1(C)O [Comparative Agent 1, 6-O-methylerythromycin A, reference compound] | 10 | 0.25 (≈ 0.334 µM) | 10 |
| CC[C@H]1OC(=O)[C@H](C)[C@@H](O[C@H]2C[C@@](C)(OC)[C@@H](O)[C@H](C)O2)[C@H](C)[C@@H](O[C@@H]2O[C@H](C)C[C@H](N(C)C)[C@H]2OC)[C@@](C)(OC)C[C@@H](C)[C@H](N)[C@H](C)[C@@H](O)[C@]1(C)O [Compound T of Example 142, 9-deoxo-9-(S)-amino-6,2′-di-O-methylerythromycin A] | 8.88 | > 128 |  |
| CC[C@H]1OC(=O)[C@H](C)[C@@H](O[C@H]2C[C@@](C)(OC)[C@@H](OC(C)=O)[C@H](C)O2)[C@H](C)[C@@H](O[C@@H]2O[C@H](C)C[C@H](N(C)C)[C@H]2OC)[C@@](C)(OC)C[C@@H](C)[C@H](OC(=O)CCN(C)C)[C@H](C)[C@@H](O)[C@]1(C)O [Compound V of Example 147, 4″-O-acetyl-9-deoxo-9-(S)-(3-dimethylaminopropionyloxy)-6,2′-di-O-methylerythromycin A] | 2.61 | > 128 |  |
| CC[C@H]1OC(=O)[C@H](C)[C@@H](O[C@H]2C[C@@](C)(OC)[C@@H](OC(C)=O)[C@H](C)O2)[C@H](C)[C@@H](O[C@@H]2O[C@H](C)C[C@H](N(C)C)[C@H]2OC)[C@@](C)(OC)C[C@@H](C)[C@H](OC(=O)CCN(C)C)[C@H](C)[C@@H](OC(=O)CCN(C)C)[C@]1(C)O [Compound W of Example 147, 4″-O-acetyl-9-deoxo-9-(S)-(3-dimethylaminopropionyloxy)-11-O-(3-dimethylaminopropionyl)-6,2′-di-O-methylerythromycin A] | 6.56 | > 128 |  |
| CC[C@H]1OC(=O)[C@H](C)[C@@H](O[C@H]2C[C@@](C)(OC)[C@@H](OC(C)=O)[C@H](C)O2)[C@H](C)[C@@H](O[C@@H]2O[C@H](C)C[C@@H](N3CC[C@H](O)C3)[C@@H]2N(C)C)[C@@](C)(OC)C[C@@H](C)C(=O)[C@H](C)[C@@H](O)[C@]1(C)O [Compound X of Example 200, 4″-O-acetyl-3′-dedimethylamino-2′-deoxy-2′-dimethylamino-3′-((S)-3-hydroxypyrrolidin-1-yl)-6-O-methylerythromycin A] | 2.03 | > 128 |  |
| CC[C@H]1OC(=O)[C@H](C)[C@@H](O[C@H]2C[C@@](C)(OC)[C@@H](OC(C)=O)[C@H](C)O2)[C@H](C)[C@@H](O[C@@H]2O[C@H](C)C[C@@H](N3CC[C@@H](O)C3)[C@@H]2N(C)C)[C@@](C)(OC)C[C@@H](C)C(=O)[C@H](C)[C@@H](O)[C@]1(C)O [Compound Y of Example 200, 4″-O-acetyl-3′-dedimethylamino-2′-deoxy-2′-dimethylamino-3′-((R)-3-hydroxypyrrolidin-1-yl)-6-O-methylerythromycin A] | 3.02 | > 128 |  |
| CC[C@H]1OC(=O)[C@H](C)[C@@H](O)[C@H](C)[C@@H](O[C@@H]2O[C@H](C)C[C@H](N(C)Cc3ccccc3)[C@H]2O)[C@@](C)(O)C[C@@H](C)CN(C)[C@H](C)[C@@H](O)[C@]1(C)O [Example 20, 5-O-(3′-N-demethyl-3′-N-benzyl)desosaminyl-9-deoxo-9a-aza-9a-methyl-9a-homoerythronolide A] | 0.83 | > 128 |  |
| CC[C@H]1OC(=O)[C@H](C)[C@@H](O[C@H]2C[C@@](C)(OC)[C@@H](O)[C@H](C)O2)[C@H](C)[C@@H](O[C@@H]2O[C@H](C)C[C@H](N(C)C)[C@H]2OCCCc2ccccc2)[C@@](C)(OC)C[C@@H](C)C(=O)[C@H](C)[C@@H](O)[C@]1(C)O [Example 24, 2′-O-(3-phenylpropyl)-6-O-methylerythromycin A] | 0.38 | > 64 |  |
| CC[C@H]1OC(=O)[C@H](C)[C@@H](O[C@H]2C[C@@](C)(OC)[C@@H](O)[C@H](C)O2)[C@H](C)[C@@H](O[C@@H]2O[C@H](C)C[C@H](N(C)C)[C@H]2OC)[C@@](C)(OC)C[C@@H](C)C(=O)[C@H](C)[C@@H](O)[C@]1(C)O [Example 31, 6,2′-di-O-methylerythromycin A] | 4.08 | > 128 |  |
| CC[C@H]1OC(=O)[C@H](C)[C@@H](O)[C@H](C)[C@@H](O[C@@H]2O[C@H](C)C[C@H](N(C)Cc3cccc(OC)c3)[C@H]2O)[C@@](C)(OC)C[C@@H](C)C(=O)[C@H](C)[C@H]2NC(=O)O[C@@]21C [Example 65, 11-amino-11-deoxy-5-O-(3′-N-demethyl-3′-N-(3-methoxybenzyl)desosaminyl)-6-O-methylerythronolide A 11,12-cyclic carbamate] | 1.37 |  |  |
| CC[C@H]1OC(=O)[C@H](C)[C@@H](O[C@H]2C[C@@](C)(OC)[C@@H](O)[C@H](C)O2)[C@H](C)[C@@H](O[C@@H]2O[C@H](C)C[C@@H](N3CCN(C)CC3)[C@@H]2N(C)C)[C@@](C)(OC)C[C@@H](C)C(=O)[C@H](C)[C@H]2NC(=O)O[C@@]21C [Example 89, 11-amino-3′-dedimethylamino-11,2′-dideoxy-2′-dimethylamino-3′-(4-methylpiperazin-1-yl)-6-O-methylerythromycin A 11,12-cyclic carbamate] | 1.59 | > 128 |  |
| CC[C@H]1OC(=O)[C@H](C)[C@@H](O[C@H]2C[C@@](C)(OC)[C@@H](OC(C)=O)[C@H](C)O2)[C@H](C)[C@@H](O[C@@H]2O[C@H](C)C[C@@H](N3CCOCC3)[C@@H]2N(C)C)[C@@](C)(OC)C[C@@H](C)C(=O)[C@H](C)[C@H]2NC(=O)O[C@@]21C [Example 95, 4″-O-acetyl-11-amino-3′-dedimethylamino-11,2′-dideoxy-2′-dimethylamino-3′-(4-morpholino)-6-O-methylerythromycin A 11,12-cyclic carbamate] | 4.36 | > 128 |  |
| CC[C@H]1OC(=O)[C@H](C)[C@@H](O[C@H]2C[C@@](C)(OC)[C@@H](O)[C@H](C)O2)[C@H](C)[C@@H](O[C@@H]2O[C@H](C)C[C@@H](N3CCCCC3)[C@@H]2N(C)C)[C@@](C)(OC)C[C@@H](C)C(=O)[C@H](C)[C@@H](O)[C@]1(C)O [Example 101, 3′-dedimethylamino-2′-deoxy-2′-dimethylamino-3′-(1-piperidino)-6-O-methylerythromycin A] | 0.62 | > 128 |  |
| CC[C@H]1OC(=O)[C@H](C)[C@@H](O[C@H]2C[C@@H](C)[C@H](O)[C@](C)(OC)O2)[C@H](C)[C@@H](O[C@@H]2O[C@H](C)C[C@H](N(C)CCN(C)C)[C@H]2OC)[C@@](C)(OC)C[C@@H](C)C(=O)[C@H](C)[C@@H](O)[C@]1(C)O [Example 104, 3′-N-demethyl-3′-N-(2-dimethylaminoethyl)-6,2′-di-O-methylerythromycin A] | 5 | > 128 |  |
| CCO[C@H]1[C@H](O[C@@H]2[C@@H](C)[C@H](O[C@@H]3C[C@@](C)(OC)[C@@H](O)[C@H](C)O3)[C@@H](C)C(=O)O[C@H](CC)[C@@](C)(O)[C@H](O)[C@@H](C)C(=O)[C@H](C)C[C@]2(C)OC)O[C@H](C)C[C@@H]1N(C)C [Example 105, 2′-O-ethyl-6-O-methylerythromycin A] | 4.38 | > 128 |  |
| CC[C@H]1OC(=O)[C@H](C)[C@@H](O[C@H]2C[C@@](C)(OC)[C@@H](O)[C@H](C)O2)[C@H](C)[C@@H](O[C@@H]2O[C@H](C)C[C@H](N(C)C)[C@H]2OCCCN(C)C)[C@@](C)(OC)C[C@@H](C)C(=O)[C@H](C)[C@@H](O)[C@]1(C)O [Example 115, 2′-O-(3-dimethylaminopropyl)-6-O-methylerythromycin A] | 3.88 | > 128 |  |
| CC[C@H]1OC(=O)[C@H](C)[C@@H](O[C@H]2C[C@@](C)(OC)[C@@H](OC(C)=O)[C@H](C)O2)[C@H](C)[C@@H](O[C@@H]2O[C@H](C)C[C@H](N(C)C)[C@H]2OCCCN(C)C)[C@@](C)(OC)C[C@@H](C)C(=O)[C@H](C)[C@@H](O)[C@]1(C)O [Example 116, 4″-O-acetyl-2′-O-(3-dimethylaminopropyl)-6-O-methylerythromycin A] | 2.79 | > 128 |  |
